Laboratory results published in patent publication US20250263496A1, “Neutrophil-Activating Therapy for the Treatment of Cancer” (The Board of Trustees of the Leland Stanford Junior …, priority 2024, published 2025).

B1: catalase: enzyme neutralizing hydrogen peroxide (C40, Sigma) (protein, UniProt P00432 2-527, looked up)
Catalase: ADNRDPASDQMKHWKEQRAAQKPDVLTTGGGNPVGDKLNSLTVGPRGPLLVQDVVFTDEMAHFDRERIPERVVHAKGAGAFGYFEVTHDITRYSKAKVFEHIGKRTPIAVRFSTVAGESGSADTVRDPRGFAVKFYTEDGNWDLVGNNTPIFFIRDALLFPSFIHSQKRNPQTHLKDPDMVWDFWSLRPESLHQVSFLFSDRGIPDGHRHMNGYGSHTFKLVNANGEAVYCKFHYKTDQGIKNLSVEDAARLAHEDPDYGLRDLFNAIATGNYPSWTLYIQVMTFSEAEIFPFNPFDLTKVWPHGDYPLIPVGKLVLNRNPVNYFAEVEQLAFDPSNMPPGIEPSPDKMLQGRLFAYPDTHRHRLGPNYLQIPVNCPYRARVANYQRDGPMCMMDNQGGAPNYYPNSFSAPEHQPSALEHRTHFSGDVQRFNSANDDNVTQVRTFYLKVLNEEQRKRLCENIAGHLKDAQLFIQKKAVKNFSDVHPEYGSRIQALLDKYNEEKPKNAVHTYVQHGSHLSAREKANL
B2: C5a: recombinant mouse C5a (R&D Systems) (protein, UniProt P06684 679-755, looked up)
C5a anaphylatoxin: NLHLLRQKIEEQAAKYKHSVPKKCCYDGARVNFYETCEERVARVTIGPLCIRAFNECCTIANKIRKESPHKPVQLGR
modifications: C5a anaphylatoxin

Legend:
B16 tumors = assay: TUNEL staining of cell death in B16 tumors; type: in vivo, mouse; conditions: agent given prior to neutrophil-activating therapy
Method: Tumors were dissected away from surrounding fat, fixed in 2% paraformaldehyde for 2 hours at 4° C., equilibrated in a 30% sucrose solution at 4° C., and embedded and frozen in O.C.T. Compound (Tissue-Tek). Slides were cut to […] and blocked with 1% BSA and 10% serum matched to the secondary antibody species. The following antibodies were used for immunofluorescence: PE anti-Ly6G (clone 1A8, BioLegend), DyLight 650 anti-gp75 (clone TA99, Bio X Cell, labeled using DyLight 650 NHS Ester (Thermo Scientific)), fluorescein anti-gp75 (clone TA99, Bio X Cell, labeled using NHS-Fluorescein (Thermo Scientific)), FITC anti-DNA/RNA damage (clone 15A3, recognizing 8-hydroxy-2′-deoxyguanosine/8-oxo-7,8-dihydroguanine/8-oxo-7,8-dihydroguanosine, Abcam), and AF647 anti-C3 (clone 11H9, Novus Biologicals). DAPI (Invitrogen) was stained at 1 μg/ml. FITC/fluorescein signal was amplified using AF488 anti-FITC (ThermoFisher Scientific), and PE was amplified using biotin anti-PE (clone PE001, BioLegend) followed by DyLight 594 streptavidin (BioLegend) or DyLight 649 streptavidin (BioLegend). Prior to use of biotinylated antibodies, endogenous biotin was blocked using the Avidin/Biotin Blocking Kit (Vector Laboratories). Prior to DNA/RNA damage staining, sections were permeabilized with 0.1% Triton X-100 in 0.1% sodium citrate. TUNEL (Terminal deoxynucleotidyl transferase dUTP nick end labeling) staining was performed using the In Situ Cell Death Detection Kit, TMR Red (Roche) according to the manufacturer's instructions. […] All parameters that were quantified were acquired with identical microscope settings and adjusted identically in Photoshop, and all adjustments were applied equally across the entire tumor. Quantification was performed in ImageJ, using the wand tool on the overlaid multichannel image to draw a border around the tumor and then measuring the percent area within that border with signal for the channel of the marker quantified.

B16 cells = assay: Mouse in vitro cytotoxicity (EuTDA), B16 cells co-cultured with neutrophils; type: cell-based; conditions: for effect of agent on ex vivo killing of tumor cells by neutrophils: neutrophils from treated tumors stimulated with neutrophil-activating therapy
Method: B16 tumors were treated by intratumoral injection of TNF+anti-CD40+anti-gp75 and harvested 12 hours post-treatment. Tumors were dissected away from any surrounding fat, minced, and digested in 5 mg/ml collagenase IV (Worthington) plus 0.1 mg/ml DNase I (Sigma) with continuous mixing by magnetic stir bars for 20 minutes at 37° C. in RPMI-1640 (Gibco) with 2% FBS. Following digestion, tissue was mashed through a […] cell strainer (Falcon) and washed. For some studies, bone marrow was harvested by grinding bones from tumor-naive untreated mice in a mortar and pestle and mashing through a […] strainer (Falcon). Neutrophils were isolated from tumor and bone marrow samples with the MojoSort Mouse Ly6G Selection Kit (BioLegend), according to the manufacturer's instructions, and used in the cytotoxicity assay.
Cytotoxicity assays were conducted using the EuTDA assay from the DELFIA TRF cytotoxicity kit (PerkinElmer) according to the manufacturer's instructions. Briefly, B16 cells were labeled for 10 minutes with BATDA, and 5×10^3 labeled cells were added per well to a 96 well V-bottom plate in RPMI-1640. Neutrophils were added at a ratio of 10:1 unless otherwise stated. All co-cultures were conducted in the presence of TNF (10 ng/ml), anti-CD40 (1 μg/ml), anti-gp75 (1 μg/ml), and 10% active mouse C57BL/6 complement serum (Innovative Research), except where indicated otherwise. Mouse C57BL/6 complement serum was heat-inactivated for 40 minutes at 57° C. where inactivation is specified. In some experiments, mouse IgG2a isotype control (1 μg/ml, isotype control for anti-gp75, clone C1.18.4, Bio X Cell), anti-mouse CD16/CD32 (10 μg/ml, clone 2.4G2, Bio X Cell), recombinant mouse C5a (50 nM, R&D Systems), anti-C5a (25 μg/ml, clone 295108, R&D Systems), rat IgG2a isotype control (25 μg/ml, isotype control for anti-C5a, clone 2A3, Bio X Cell), anti-C5AR1 (5 μg/ml, clone 20/70, BioLegend), rat IgG2b isotype control (5 μg/ml, isotype control for anti-C5AR1, clone LTF-2, Bio X Cell), SC57461A (10 μM, Cayman Chemical), CP-105696 (1 μM, Sigma), topiroxostat (10 μM, MedChem Express), or DMSO (vehicle for SC57461A, CP-105696, and topiroxostat) were added to the wells with the B16 and neutrophils. After 4 hours of co-culture at 37° C., supernatant was taken from the wells, Europium solution was added, and TDA released from lysed B16 cells was detected by […] on a Victor X4 fluorescence microplate reader (PerkinElmer). Percent maximal lysis was determined by calculating the specific release of TDA using the formula: (experimental release−spontaneous release)/(maximum release −spontaneous release), where spontaneous release was determined by wells containing no neutrophils and maximum release was determined by wells with lysis buffer added.
For trogocytosis studies investigating transfer of tumor-binding antibody, anti-gp75 labeled with AF647 (clone TA99, Novus Biologicals) was used in place of unlabeled anti-gp75. For studies investigating transfer of B16 cell membrane, DiD′ Solid (ThermoFisher Scientific) was reconstituted in DMSO at 10 mg/ml and diluted to a working solution of 5 μg/ml in serum-free DMEM. B16 cells were labeled in this solution for 20 minutes at 37° C. at 1×10^6 cells/ml. Labeled B16 was washed 3 times in warm media before being added to the co-culture wells with the neutrophils. Following co-culture, flow cytometry was used to identify DiD signal in neutrophils.

naive neutrophils = assay: Mouse in vitro neutrophil stimulations; type: cell-based
Method: Mouse in vitro neutrophil stimulations. Bone marrow was harvested by grinding bones in a mortar and pestle and mashing through a […] strainer (Falcon). Neutrophils were isolated by negative selection with the MojoSort Mouse Neutrophil Isolation Kit (BioLegend). Following isolation, neutrophils were plated in Opti-MEM (Gibco) at 1×10^5 cells in 100 μl and stimulated with 10 ng/ml TNF, 1 μg/ml anti-CD40, 1 μg/ml anti-gp75, and/or 50 nM recombinant mouse C5a (R&D Systems) for 30 minutes at 37° C. After 30 minutes, the supernatant was collected, centrifuged to remove cells and debris, and analyzed for LTB4 using the Leukotriene B4 ELISA kit (Cayman Chemical 520111) as described above. Additionally, stimulated neutrophils were stained for activation markers and analyzed by flow cytometry as described above.

Molecule | effect of agent on treatment-induced tumor cell death (B16 tumors) | effect of agent on ex vivo killing of tumor cells by neutrophils (B16 cells) | requirement for ex vivo killing of B16 cells by tumor-infiltrating neutrophils (B16 cells) | neutrophil activation (naive neutrophils; in vitro) | LTB4 production by neutrophils (naive neutrophils; in vitro stimulation)
CN(CCCOc1ccc(Cc2ccccc2)cc1)CCC(=O)O.Cl [SC57461A] | prevented treatment-induced tumor cell death | prevented ex vivo killing of tumor cells |  |  | 
O=C(O)C1(c2ccc3c(c2)OC[C@H](Cc2ccc(-c4ccccc4)cc2)[C@H]3O)CCCC1 [CP-105696] |  | prevented ex vivo killing of tumor cells |  |  | 
N[C@@H](CCC(=O)N[C@@H](CS)C(=O)NCC(=O)O)C(=O)O [GSH, Reduced L-glutathione] | decreased tumor cell death in vivo | blocked ex vivo killing of tumor cells |  |  | 
B1 |  | blocked ex vivo killing of tumor cells |  |  | 
B2 |  |  | required C5a or serum containing functional complement | activated neutrophils | induced LTB4
